In ChEMBL document CHEMBL3585308, “Discovery and Modification of in Vivo Active Nrf2 Activators with 1,2,4-Oxadiazole Core: Hits Identification and Structure-Activity Relationship Study” (J Med Chem, 2015) one finds Activity data, which are given here for one compound.

The test system of series [1] is Mus musculus. The experiment in a line: Antiinflammatory activity in C57BL/6 mouse assessed as reduction of LPS-induced IL-6 level in serum at 10 mg/kg/day pretreated for 48 hrs followed by LPS challenge measured after 5 hrs by ELISA. It counts as functional, organism-based. For orientation: An ELISA detects its analyte on a solid surface through an enzyme-linked reagent.

Series [2] has as its system Mus musculus. The experiment in a line: Toxicity in C57BL/6 mouse assessed as effect on body weight at 10 mg/kg/day measured after 3 days. As to conditions: in vivo, 72 h. The format is organism-based.
Series [3] has as its system Mus musculus. The experiment in a line: Antiinflammatory activity in C57BL/6 mouse assessed as reduction of LPS-induced TNF-alpha level in serum at 10 mg/kg/day pretreated for 48 hrs followed by LPS challenge measured after 5 hrs by ELISA. It counts as functional, organism-based.
Series [4] concerns Mus musculus. The experiment in a line: Antiinflammatory activity in C57BL/6 mouse assessed as reduction of LPS-induced IL-12 level in serum at 10 mg/kg/day pretreated for 48 hrs followed by LPS challenge measured after 5 hrs by ELISA. It counts as functional, organism-based.
Series [5] deals with Mus musculus. The experiment in a line: Antiinflammatory activity in C57BL/6 mouse assessed as prevention of LPS-induced morphological changes in lung at 10 mg/kg/day pretreated for 48 hrs followed by LPS challenge measured after 5 hrs. The format is functional, organism-based.
Series [6] deals with Mus musculus. The experiment in a line: In vivo activation of Nrf2 in LPS-stimulated C57BL/6 mouse lung at 10 mg/kg/day pretreated for 48 hrs followed by LPS challenge measured after 5 hrs by DAPI staining-based laser scanning confocal microscopic analysis. It counts as functional, organism-based.
Series [7] deals with Mus musculus. The experiment in a line: Antiinflammatory activity in C57BL/6 mouse assessed as reduction of LPS-induced IL-17 level in serum at 10 mg/kg/day pretreated for 48 hrs followed by LPS challenge measured after 5 hrs by ELISA. The format is functional, organism-based.
The test system of series [8] is Mus musculus. The experiment in a line: Antiinflammatory activity in C57BL/6 mouse assessed as reduction of LPS-induced IFN-gamma level in serum at 10 mg/kg/day pretreated for 48 hrs followed by LPS challenge measured after 5 hrs by ELISA. The format is functional, organism-based.
Series [9] relates to Mus musculus. The experiment in a line: Antiinflammatory activity in C57BL/6 mouse assessed as suppression of LPS-induced IL-6 expression in lung at 10 mg/kg/day pretreated for 48 hrs followed by LPS challenge measured after 5 hrs by immunohistochemical analysis. It counts as functional, organism-based.

Activity calls are given as the source filed them. The rule behind the calls is not given here.

Consider `C[C@@H]1C[C@H]2[C@@H]3CCC4=CC(=O)C=C[C@]4(C)[C@@]3(F)[C@@H](O)C[C@]2(C)[C@@]1(O)C(=O)CO` [DEXAMETHASONE], for which the outcome in the series with Mus musculus [1], with Mus musculus [3], in the series on Mus musculus [4], with Mus musculus [5], in the series with Mus musculus [6] and in the series with Mus musculus [7] was Active. For the same compound, the result in the series with Mus musculus [8] and with Mus musculus [9] was Active. Further, the Activity result with Mus musculus [2] is given as “Non-toxic”.
